Measured values as given in patent publication US10682337B2, “Compositions and methods for treatment and prevention of pyrexia in horses” (Kindred Biosciences, Inc., priority 2015, dated 2020).

What was measured:
Format in all cases: in vivo
[1] = tested on: horses with clinical signs of infectious disease; assay: two-phase efficacy study of oral metamizole in mature horses
Experimental: A two-phase study to determine the efficacy of oral metamizole in mature horses was conducted as follows. In the first phase, 9 horses with clinical signs of infectious disease were enrolled.
In the second phase, 8 horses with clinical signs of infectious disease were enrolled.
The oral formulation of metamizole used for both phases was an aqueous formulation comprising 500 mg/ml metamizole sodium monohydrate, 10 mg/ml xanthan gum, and 100 mg/ml propylene glycol, and 15 mg/ml benzyl alcohol. The formulation was adjusted to pH 7.8 using sodium hydroxide.
For both phases, rectal temperature was monitored at pre-determined intervals. Horses were redosed based on rectal temperature and minimum dosing intervals up to five additional times, for a total of six doses. Fever was required for redose with metamizole.

[2] = oral bioavailability of metamizole in horses (plasma 4-MAA); details: four horses; 30 mg/kg; water slurry via nasogastric intubation vs IV Vetalgina; plasma 4-MAA up to 48 hours; FIG. 1
Experimental: The commercially available Vetalgina product (Intervet) for IV administration (sodium salt) was administered in accordance with the manufacturer's instructions. Plasma was collected prior to administration and at specified intervals for up to 48 hours. Horses underwent a washout period, and then were administered the active ingredient (metamizole sodium monohydrate) in a water slurry to the horses' stomach via nasogastric intubation. Plasma was collected again prior to […] administration and at specified intervals for up to 48 hours. Horses were treated with matched doses on a milligram per kilogram basis for both test articles. Plasma was assayed for the primary metabolite of metamizole sodium, 4-methylaminoantipyrine (4-MAA).

[3] = tested on: horses with naturally occurring respiratory infections; assay: pilot efficacy study of orally administered metamizole in horses with fever; details: of 8 horses; oral gel 30 mg/kg; ≥2° F. decrease or ≤101.0° F. 6 hours following dose
Experimental: Metamizole, as an active ingredient, was formulated into a simple gel for oral administration and dosed at 30 mg/kg body weight. Eight horses with naturally occurring respiratory infections were provided. The temperatures of the horses were monitored. […] Horses were treated up to three times with an oral formulation of metamizole sodium. Rectal temperature was monitored to determine response to treatment. […] Pyrexia returned at timepoints appropriate for the drug's plasma residence time.

Compound: Cc1c(N(C)CS(=O)(=O)O)c(=O)n(-c2ccccc2)n1C [metamizole sodium monohydrate]
- Adverse events ([1]; 30 and 40 mg/kg oral, up to six doses): consistent with the underlying infections required for enrollment
- horses defined as primary responders after Dose 1 ([1]; Phase 2, 40 mg/kg oral): 7/8
- horses defined as primary responders after Dose 1 ([1]; phase 1, 30 mg/kg oral): 7/9

Compound: Cc1c(N(C)CS(=O)(=O)O)c(=O)n(-c2ccccc2)n1C [metamizole, [(2,3-dihydro-1,5-dimethyl-3-oxo-2-phenyl-1H-pyrazol-4-yl)methylamino] methanesulfonic acid]
- bioavailability, orally vs parenterally administered metamizole [2]: comparable bioavailability

Compound: Cc1c(N(C)CS(=O)(=O)O)c(=O)n(-c2ccccc2)n1C [metamizole sodium]
- horses with clinically significant improvement in rectal temperature [3]: 8
